The source of these data is PMC12389018, “Eugenia uniflora L.: Analysis of Chemical Profile and Cytotoxic Action on Tumor (HeLa) and Non-Tumor Cells (NIH/3T3)” (Pharmaceuticals, 2025).

Data set [1] concerns HeLa cells vs NIH/3T3 cells. In words: Selectivity index (IC50 NIH/3T3 divided by IC50 HeLa). The following applies: IC50 NIH/3T3 / IC50 HeLa; SI ≥ 2 considered selective. The data set is classed as cell-based. The method, then:
The selectivity index (SI) was calculated by dividing the IC50 value of NIH/3T3 cells by the IC50 of HeLa cells. Samples with SI ≥ 2 were considered selectively cytotoxic to cancer cells.

Data set [2] relates to NIH/3T3 (murine fibroblast) cells. Nature of the data set: MTT cell viability assay in NIH/3T3 cells. The data set is classed as cell-based. Here is the method: (§1) The HeLa (cervical cancer) and NIH/3T3 (murine fibroblast) cells were seeded in 96-well plates at a density of 3 × 10^4 cells/well in DMEM (Dulbecco’s Modified Eagle Medium; Gibco, Thermo Fisher, Paisley, UK), supplemented with 10% fetal bovine serum (FBS; Cultilab®, São Paulo, Brazil) and 1% penicillin/streptomycin (Pen/Strep—Cultilab®, Campinas, Brazil). The cells were incubated at 37 °C in a humidified atmosphere containing 5% CO2 for 24 h. After incubation, the cells were treated with EUD and EUA extracts at concentrations ranging from 3.5 µg/mL to 250 µg/mL and incubated for an additional 48 h. The cell lines were kindly donated by Cemib (Multidisciplinary Center for Biological Research in the Laboratory Animal Science Area, Campinas, Brazil)—Unicamp/SP.
(§2) One row of wells was treated only with the vehicle (culture medium) to serve as the negative control, representing 100% cell viability. Doxorubicin (Libbs®, São Paulo, Brazil) and carboplatin (Blau Farmacêutica®, São Paulo, Brazil) were used as the positive controls.
Following treatment, the medium was removed, and 100 µL/well of MTT reagent (5 mg/mL; 3-[4,5-dimethylthiazol-2-yl]-2,5-diphenyltetrazolium bromide; Invitrogen, Thermo Fisher, Waltham, MA, USA) was added. […] Absorbance was measured at 570 nm using an Epoch-Biotek ELISA microplate spectrophotometer (BioTek Instruments, Winooski, VT, USA). […]

Data set [3] deals with HeLa (cervical cancer) cells. In words: MTT cell viability assay in HeLa cells. The data set is classed as cell-based, human. The method, then:
as §1, §2
Following treatment, the medium was removed, and 100 µL/well of MTT reagent (5 mg/mL; 3-[4,5-dimethylthiazol-2-yl]-2,5-diphenyltetrazolium bromide; Invitrogen, Thermo Fisher, Waltham, MA, USA) was added. The plates were incubated for 4 h at 37 °C. After incubation, the resulting formazan crystals formed in viable cells were solubilized by adding 100 µL/well of DMSO (dimethyl sulfoxide; Labsynth, São Paulo, Brazil). Absorbance was measured at 570 nm using an Epoch-Biotek ELISA microplate spectrophotometer (BioTek Instruments, Winooski, VT, USA).
Statistical analysis was performed using GraphPad Prism 8.4.6 (GraphPad Software, Inc., Boston, MA, USA) via one-way ANOVA followed by Tukey’s post hoc test. Differences were considered statistically significant at p < 0.05. All the experiments were conducted in triplicate.

The test system of data set [4] is liver (Hep-G2) cancer cells. To be noted: in vitro; cited from earlier work.
In data set [5] the test system is human cervical (HeLa) cancer cells. To be noted: in vitro; cited from earlier work.
For data set [6], the system named is non-small-cell lung cancer cells NCI-H358. Set-up: method as in doi:10.3390/scipharm91030042. The following applies: cited from earlier work.
Data set [7] concerns SiHa cells, a cervical squamous cell carcinoma line. Set-up: method as in PMID 37935292. To be noted: cited from earlier work.
Data set [8] deals with non-small-cell lung cancer cells A549. Further details: method as in doi:10.3390/scipharm91030042. The following applies: cited from earlier work.
Data set [9] concerns breast cancer cells MDA-MB-468. Further details: method as in doi:10.3390/scipharm91030042. The following applies: cited from earlier work.
In data set [10] the test system is breast cancer cells MDA-MB-231. Further details: method as in doi:10.3390/scipharm91030042. The following applies: cited from earlier work.
Data set [11] has as its system HeLa cells. In words: Cell migration assay (scratch assay). It is filed as cell-based, human. The following applies: EUD 7.5 μg/mL, EUA 10 μg/mL, doxorubicin 0.375 μg/mL. Here is the method: The HeLa cells (70,000–80,000 cells/well) were seeded in 24-well plates with DMEM supplemented with 10% FBS and 1% Pen/Strep and incubated at 37 °C with 5% CO2 until 80% confluence. The medium was replaced with DMEM containing 0.2% FBS, and after 24 h, a scratch was made in the cell monolayer using a 1000 µL pipette tip. The cells were washed with sterile PBS, and they were treated with doxorubicin (positive control) and EUD and EUA extracts at ¼ of their IC50 values: 7.5 µg/mL (EUD), 10 µg/mL (EUA), and 0.375 µg/mL (doxorubicin).
Images were captured at 0 h (T0), 12 h (T1), 18 h (T2), and 24 h (T3) using an EVOS XL Core Imaging System microscope (10× objective). Scratch area percentages were analyzed using the ImageJ software 1.54g/Java 1.8.0_421 (32-bit), and statistical analysis was performed using one-way ANOVA with GraphPad Prism 8.4.3. All the experiments were conducted in triplicate.

Data set [12] deals with HeLa cells. In words: Cell cycle analysis by flow cytometry with PI staining. The data set is classed as cell-based, human. The following applies: treated at IC50, 48 h. Here is the method:
The HeLa cells (2 × 10^5 cells/well) were seeded in 6-well plates and incubated for 24 h. The cells were then treated with the EUD and EUA extracts and doxorubicin at their respective IC50 concentrations. The vehicle-treated cells served as the negative control. After 48 h, cells were harvested with trypsin, centrifuged, fixed in 70% ethanol, and stained with propidium iodide (PI) (Sigma-Aldrich®). The samples were incubated at 37 °C for 30 min in the dark and analyzed using a BD Accuri™ C6 Plus flow cytometer. Histograms were processed with the Cell Quest Pro software (version 5.1). Data was analyzed using two-way ANOVA in GraphPad Prism 8.4.3, with significance at p < 0.05.

In brackets after ≈: the same amount, converted by molar mass.

Turning to `N.N.O=C([O-])C1(C(=O)[O-])CCC1.[Pt+2]` [Carboplatin], in [1], the “Selectivity Index (SI)” value was determined as 0.73. In addition, in [2] (48 h treatment), the “IC50 Non-Tumor cells NIH/3T3” value was 38.32 µg/mL. Further, the “IC50 Tumor Cells HeLa” value in data set [3] (48 h treatment) was determined as 52.40 µg/mL. In [3] (p < 0.05), the “concentrations with statistically significant reduction of HeLa cell viability vs negative control” value is more than 25 µg/mL.
With unifloratrin, the “cytotoxicity against Hep-G2 cancer cells” value in data set [4] is listed as “considerable cytotoxicity”. In data set [5], the “cytotoxicity against HeLa cancer cells” value is “considerable cytotoxicity”.
As to `O=c1oc2c(O)c(O)cc3c(=O)oc4c(O)c(O)cc1c4c23` [ellagic acid, Ellagic acid], the “effect on proliferation of NCI-H358 cells” value in [6] was “inhibited the proliferation”. Further, the “effect on proliferation of SiHa cells” value in data set [7] is given as “inhibit cell proliferation”. Besides, the “effect on proliferation of A549 cells” value in [8] is listed as “inhibited the proliferation”. Further, the “effect on proliferation of MDA-MB-468 cells” value in data set [9] is “inhibited the proliferation”. Further, in [10], the “effect on proliferation of MDA-MB-231 cells” value was “inhibited the proliferation”.
As to `COc1cccc2c1C(=O)c1c(O)c3c(c(O)c1C2=O)C[C@@](O)(C(=O)CO)C[C@@H]3O[C@H]1C[C@H](N)[C@H](O)[C@H](C)O1` [Doxorubicin], the “free area (scratch) at T1” value in the data set with HeLa cells [11] (12 h) amounted to 39.51%. In the data set on HeLa cells [11] (18 h), the “free area (scratch) at T2” value was determined as 36.49%. Besides, the “free area (scratch) at T3” value in the data set on HeLa cells [11] (24 h) was 32.17%. For the same molecule, the “inhibition of cell migration compared to the negative control” value in the data set on HeLa cells [11] is “did not significantly inhibit tumor cell migration”. The “Selectivity Index (SI)” value in data set [1] is 1.5. The IC50 is 2.32 µg/mL (≈ 4.27 µM) in data set [2] (Mus musculus, NIH3T3, 48 h treatment, read-out: IC50 Non-Tumor cells NIH/3T3) and 1.59 µg/mL (≈ 2.93 µM) in data set [3] (Homo sapiens, HeLa, 48 h treatment, read-out: IC50 Tumor Cells HeLa). Also, in the data set with HeLa cells [12] (negative control 2.97%), the “cells in SubG0 phase” value amounted to 44.20%. In addition, the “cells in G2/M phase” value in the data set with HeLa cells [12] (negative control 7.97%) came out at 0.245%. For the same molecule, the “cells in S phase” value with HeLa cells [12] (negative control 30.55%) turned out to be 12.1%. In addition, the “cells in G1/G0 phase” value with HeLa cells [12] (negative control 56.75%) is listed as 42.75%.
As for myricitrin, the “cytotoxicity against Hep-G2 cancer cells” value in data set [4] is “considerable cytotoxicity”. For the same molecule, in [5], the “cytotoxicity against HeLa cancer cells” value is “considerable cytotoxicity”.
